Measurements taken from patent US4868195A, “Novel enolamides, pharmaceutical compositions and methods of use thereof for activity as modulators of the arachidonic acid cascade” (Warner-Lambert Company, priority 1988, dated 1989).
Several values for one entry are separate records, joined by “and”; a condition that tells them apart may be missing. Equal entries are not always repeated.

Key:
[1] = target: T1, human leukocyte 5-lipoxygenase (Homo sapiens, UniProt P09917); experiment: 5-lipoxygenase inhibition in human leukocytes, 5-HETE formation (5LOA; methods 5LOA1 and 5LOA2); format: cell-based; settings: 5-HETE formation, human leukocytes; read-out: Concentration (M) for 50.0 % Inhibition, IC (5LOA)
T1 construct: endogenous in cells; host or cells: intact leukocytes isolated from human blood
T1 sequence (P09917 1-674): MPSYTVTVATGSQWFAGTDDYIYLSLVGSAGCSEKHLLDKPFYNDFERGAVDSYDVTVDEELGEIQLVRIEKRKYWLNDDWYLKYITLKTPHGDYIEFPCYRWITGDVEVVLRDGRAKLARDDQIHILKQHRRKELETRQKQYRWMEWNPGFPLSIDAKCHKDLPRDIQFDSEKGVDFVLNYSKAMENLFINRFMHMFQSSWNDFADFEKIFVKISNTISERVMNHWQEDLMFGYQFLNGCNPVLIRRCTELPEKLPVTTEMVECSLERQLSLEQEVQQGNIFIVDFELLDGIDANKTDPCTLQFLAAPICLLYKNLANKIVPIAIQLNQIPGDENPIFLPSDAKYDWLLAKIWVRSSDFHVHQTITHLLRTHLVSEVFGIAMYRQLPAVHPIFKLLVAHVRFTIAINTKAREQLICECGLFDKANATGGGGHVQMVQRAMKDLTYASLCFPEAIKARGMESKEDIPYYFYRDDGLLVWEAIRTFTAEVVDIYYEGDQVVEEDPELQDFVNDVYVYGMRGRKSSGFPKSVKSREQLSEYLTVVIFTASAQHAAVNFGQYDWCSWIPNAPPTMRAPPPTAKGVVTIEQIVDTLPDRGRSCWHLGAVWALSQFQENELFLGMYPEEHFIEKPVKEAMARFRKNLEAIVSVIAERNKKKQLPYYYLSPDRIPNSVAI
Excerpt: To Evaluate the Effect of Each Compounds as a 5-Lipoxygenase Inhibitor in Comparison to Standard Reference Agents in Human Leukocytes (5LOA1)
The purpose of this assay is to evaluate the activity of each compound as an inhibitor of human leukocyte 5-lipoxygenase.
Arachidonic acid and calcium ionophore A23187 are obtained from Sigma (St. Louis, MO). Silica gel plates, GF are obtained from Analtech (Newark, DE). Arachidonic acid, (1-^14 C) and 5-HETE (^3 H), 5 (S)-hydroxy-6-trans,8,11,14-cis eicosatetraenoic acid, are obtained from New England Nuclear (Boston, MA). Six percent Dextran-70 in 0.9% NaCl is obtained from Cutter Labs (Berkeley, CA).
Preparation of Leukocytes
Fresh blood from normal adult men who had not received any drugs for at least the previous five days is obtained by the Community Research Clinic (WL/PD) using venipuncture and collected into heparinized vacuotainer tubes. To every 100 ml of pooled blood is added 25 ml of dextran solution (6% dextran -70 in 0.9% sodium chloride containing 3% dextrose) and this is mixed gently in a plastic cylinder. The mixture is left to stand at room temperature for at least 90 minutes. The upper layer which is rich in leukocytes and platelets is then carefully decanted into 50 ml plastic tubes and centrifuged at about 100×g for eight minutes in an IEC centrifuge and rotor number 269 (about 600 rpm). The supernatant fluid is discarded and the pellet is resuspended in 10 ml of 0.87% ammonium chloride for exactly two minutes. This procedure is to lyse completely contaminating red blood cells. Leukocytes are then separated by centrifugation for ten minutes. The pellet is washed three times by suspension in 20 ml PBS (sodium chloride, 7.1 g; Na2 HPO4, 1.15 g; KH2 PO4, 0.2 g, and KCl, 0.2 g/L) and centrifuged as before. The final pellet is suspended in PBS containing 0.87 mM CaCl2. Viability of the cells is then checked using trypan blue exclusion method and is found to be over 90%.
5-Lipoxygenase Enzyme Assay
Leukocyte cells in suspension (0.98 ml) are incubated with or without test compounds for five minutes at 37° C. in a shaking water bath. At this time a 17 μl mixture is prepared per 1 ml of cell suspension: 100 mM arachidonic acid, 1 μl, 0.05 μCi ^14 C-arachidonic acid in 5 μl; 1 mM calcium ionophore A23187, 10 μl (1). This mixture is added and the incubation continued for five minutes. The reaction is stopped by adding four volumes of absolute ethanol and the mixture is kept in ice for 30 minutes. The floculated precipitate is separated by centrifugation at about 37,000×g for 20 minutes (Beckman Instruments rotor number 40). The alcohol extract is taken to dryness under a stream of nitrogen and the residue is dissolved in 100-200 μl absolute ethanol. At the time any turbidity is removed by centrifugation. An aliquot (25-50 μl) is applied onto 20×20 cm silica gel TLC plate and developed using the following solvent system: diethyl ether, petroleum ether (2040° C.), acetic acid (50:50:1 v/v). Zones of 1 cm apart are scraped from the TLC plate and transferred to mini-vials. Methanol (0.5 ml) is added to dissolve the radioactivity adsorbed to the silica gel and scintillation fluid (H. P., Beckman), 5 ml is then added and vials are counted in a liquid scintillation counter. A sample of ^3 H-5-HETE is applied and used for the identification of the formed 5-HETE.
Total radioactivity in the test as well as the control samples are normalized and the amount of 5-HETE present is calculated accordingly.
IC50 values are defined as the concentrations of test agents which caused a 50% inhibition of the formation of 5-HETE as compared to control and are determined by inspection of the concentration-response curves.
5-Lipoxygenase Assay Using Isolated Human Leukocytes (5LOA2)
The formation of 5-HETE in human leukocytes is considered a measure of 5-lipoxygenase activity. The protocol is described in the following. […]

[2] = target: Human Leukocyte Lipoxygenase; experiment: Human Leukocyte Lipoxygenase Assay (LDA-H); format: biochemical; settings: for IC50: acetone-pentane powder enzyme, 234 nm, 24° C., 5 min preincubation, read-out: Concentration (M) for 50.0 % Inhibition, IC (LDAH)
Experimental: Human Leukocyte Lipoxygenase Assay (LDA-H)
Whole blood is collected from normal volunteers and spun in a refrigerated centrifuge for four minutes at 1°-6° C. at 3800 g. The buffy coat is manually separated and washed twice with chilled 0.83% NH4 Cl and centrifuged at 1000 RPM for ten minutes at 4° C. The white cell is suspended in culture media-EMEM supplemented with 6% Agamma human serum, tricine buffer, and neomycin and recentrifuged at 1000 g to yield a pellet containing the leukocytes used for the preparation of the acetone pentane powder.
The acetone-pentane powder is prepared utilizing a modification of the procedure reported for human platelet lipoxygenase. See Siegel, et al, Arachidonate Metabolism via Lipoxygenase and 12-L-hydroperoxy-5 Eicosatetraenoic Acid Peroxidase Sensitive to Antiinflammatory Drugs, Proc. Natl. Acad. Sci., USA 77: 308, 1980 and D. P. Wallach and V. R. Brown, A Novel Preparation of Human Platlet Lipoxygenase, Biochem. Biophys. Acta. 663: 361, 1981. Buffy coat prepared above is resuspended in 5-7 volumes of cold 0.1M Tris buffer, pH 7.4 containing 0.154M NaCl. The suspension is centrifuged at 13,300 g for ten minutes at 4° C. The resultant pellet is retained, resuspended in five volumes of cold acetone, recentrifuged at 13,300 g and resuspended in five volumes of cold pentane. The pentane suspension is centrifuged for ten minutes at 13,300 g to give a pellet which is dried in the cold under vacuum with periodic pulverization. The dry powder is stable for several weeks when stored at -80° C.
Enzyme stock solution is prepared in the following manner. About 15 mg of the acetone-pentane powder is suspended in 4 ml of cold tris buffer (0.1M, pH 7.4), allowed to stand for five minutes, and homogenized thoroughly. The homogenate is sonicated three times for 15 seconds each time, diluted to 7 ml with cold tris buffer (0.1M, pH 7.4), and centrifuged at 4° C. for 60 minutes at 13,300 g. the supernatent is retained and diluted to a total of 10 ml with cold tris buffer (0.1M, pH 7.4) to give the stock enzyme solution. Additional dilutions of 2-50 fold are done as necessary to locate optimal enzyme reaction rate in the assay described below.
Substrate solution is prepared at 100 μM or 1.0 μM concentrations of arachidonic acid or linoleic acid in 0.1M tris buffer, pH 9.0 containing 20% ethanol.
The enzyme reaction is followed spectrophotometrically by the appearance of a conjugated diene product at 234 nm. The reaction is monitored at 24° C. using a Gilford Model 2600 spectrophotometer. […] The effects of inhibitors on the reaction are compared with control reactions run under indentical conditions. Routinely, each compounds of the present invention is incubated with the enzyme for five minutes prior to addition of substrate to initiate the reaction. Inhibition expressed as IC50 as molar concentration of the compound required to reduce reaction rate to 50% control.

IC50 [1]	IC50 [2]	% Inhibition (LDAH) ([2]; Concentration 2.50 E -5 M)	SMILES
2e-05 M and 2.1e-05 M			O=C(Nc1ccc(CCc2ccc(O)c(O)c2)cc1)C(=O)C1=C(O)c2ccccc2S(=O)(=O)C1 [Example 6, N-[4-[2-(3,4-Dihydroxyphenyl)ethyl]phenyl]-4-hydroxy-α-oxo-2H-1-benzothiopyran-3-acetamide, 1,1-dioxide]
7e-07 M	8.2e-06 M		O=C(Nc1ccc(CCc2ccc(O)c(O)c2)cc1)C1=C(O)c2ccccc2S(=O)(=O)C1 [Example 21, N-[4-[2-(3,4-Dihydroxyphenyl)ethyl]phenyl]-4-hydroxy-2H-1-benzothiopyran-3-carboxamide, 1,1-dioxide]
5e-06 M			COc1cc(CCc2ccc(NC(=O)C3=C(O)c4ccccc4S(=O)(=O)C3)cc2)ccc1O [Example 70, 2H-1-Benzothiopyran-3-carboxamide, 4-hydroxy-N-[4-[2-(4-hydroxy-3-methoxyphenyl)ethyl]phenyl]-, 1,1-dioxide]
4e-07 M			COc1cc(C=Cc2ccc(NC(=O)C3=C(O)c4ccccc4S(=O)(=O)N3C)cc2)ccc1O [Example 87, 2H-1,2-Benzothiazine-3-carboxamide, 4-hydroxy-N-[4-[2-(4-hydroxy-3-methoxyphenyl)ethenyl]phenyl]-2-methyl, 1,1-dioxide]
8.5e-06 M		0.0%	COc1ccc(CCc2ccc(NC(=O)C3Oc4cc5ccccc5cc4C3=O)cc2)cc1OC (stereo not shown) [Example 101, Naphtho[2,3-b]furan-2-carboxamide, N-[4-[2-(3,4-dimethoxyphenyl)ethyl]phenyl]-2,3-dihydroxy-3-oxo]
6.04e-06 M and 6.35e-06 M			COc1cc(CCc2ccc(NC(=O)C3Oc4ccc5ccccc5c4C3=O)cc2)ccc1O (stereo not shown) [Example 110, Naphtho[2,1-b]furan-2-carboxamide, N-[4-[2-(4-hydroxy-3-methoxyphenyl)ethyl]phenyl]-1,2-dihydro-1-oxo]
7.6e-06 M	1.6e-06 M		COc1ccc(CCc2ccc(NC(=O)C(=O)c3oc4ccccc4c3O)cc2)cc1OC [Example 121, 2-Benzofuranacetamide, N-[4-[2-(3,4-dimethoxyphenyl)ethyl]phenyl]-3-hydroxy-α-oxo]
7.6e-07 M	2.3e-06 M		O=C(Nc1ccc(CCc2ccc(O)c(O)c2)cc1)c1oc2ccc3ccccc3c2c1O [Example 122, Naphtho[2,1-b]furan-2-carboxamide, N-[4-[2-(3,4-dihydroxyphenyl)ethyl]phenyl]-1-hydroxy-]
4.2e-06 M	6.5e-06 M		O=C(Nc1ccc(CCc2ccc(O)c(O)c2)cc1)c1oc2ccccc2c1O [Example 124, 2-Benzofurancarboxamide, N-[4-[2-(3,4-dihydroxyphenyl)ethyl]phenyl]-3-hydroxy]
4.01e-06 M	6.1e-06 M		O=C(Nc1ccc(CCc2ccc(O)c(O)c2)cc1)c1oc2c(ccc3ccccc32)c1O [Example 125, Naphtho[1,2-b]furan-2-carboxamide, N-[4-[2-(3,4-dihydroxyphenyl)ethyl]phenyl]-3-hydroxy]
3.55e-06 M and 2.17e-06 M			O=C(Nc1ccc(CCc2ccc(O)c(O)c2)cc1)C(=O)C1Oc2ccccc2C1=O (stereo not drawn) [Example 126, 2-Benzofuranacetamide, N-[4-[2-(3,4-Dihydroxyphenyl)ethyl]phenyl]-2,3-dihydro-α,3-dioxo-]
5e-07 M	1.6e-06 M		O=C(Nc1ccc(CCc2ccc(O)c(O)c2)cc1)C(=O)C1Oc2cc3ccccc3cc2C1=O (stereo not shown) [Example 129]
1.21e-05 M			O=C(Nc1ccc(CCc2ccc(Cl)cc2)cc1)c1sc2ccccc2c1O [Example 145, Benzo[b]thiophene-2-carboxamide, N-[4-[2-(4-chlorophenyl)ethyl]phenyl]-3-hydroxy]
1.8e-06 M	4.7e-06 M		O=C(Nc1ccc(CCc2ccc(O)c(O)c2)cc1)C(=O)C1=C(O)c2ccccc2OC1 [Example 150]
4.8e-06 M			COc1ccc2c(c1)c1c(n2-c2ccccc2)C(=O)C(C(=O)Nc2ccc(CCc3ccc(OC)c(OC)c3)cc2)O1 (stereo not shown) [Example 158]
1.18e-06 M			Cn1c2ccccc2c2oc(C(=O)Nc3ccc(CCc4ccc(O)c(O)c4)cc3)c(O)c21 [Example 159, 4H-Furo[3,2-b]indole-2-carboxamide, N-[4-[2-(3,4-Dihydroxyphenyl)ethyl]phenyl]-3-hydroxy-4-methyl]
9e-06 M			COc1ccc(CCc2ccc(NC(=O)c3oc4c5ccccc5n(C)c4c3O)cc2)cc1OC [Example 161, 4H-Furo[3,2-b]indole-2-carboxamide, N-[4-[2-(3,4-dimethoxyphenyl)ethyl]phenyl]-3-hydroxy-4-methyl]
